From patent publication US12221494B2, “Short synthetic peptides and their uses for treating retinal degenerative diseases and/or tissue injuries” (MacKay Memorial Hospital, priority 2019, dated 2025) come the findings set out here.

The test system of experiment [1] is survivin mRNA. Put plainly: Real-time qPCR of survivin mRNA in C2C12 cells. Format: cell-based, mouse. Conditions: stimulated for 3 h. A general note: Real-time PCR tracks product formation cycle by cycle.
The next experiment relates to ARPE-19 cells. The experiment in a line: 4-HNE induced apoptosis of ARPE-19 cells (TUNEL staining). In kind it is cell-based, human. Conditions: 20 μM peptide pretreatment, 25 μM 4-HNE 24 h. How it is done:
FIG. 6. The protective effect of the 6-mer dS on ARPE-19 cells against 4-HNE induced apoptosis. Cells were deprived of serum for 24 h and then pretreated with 20 μM 6-mer dS or solvent prior to exposed with 25 μM 4-HNE for additional 24 h. Apoptosis was determined by TUNEL staining (green dots) and counter-stained with Hoechst 33258 (blue dots). (A) Representative graphs from three independent experiments are shown. (B) The percentage of cell death was quantified by dividing the number of TUNEL-positive cells to a population of 2000 counted cells per condition. TUNEL, terminal deoxynucleotidyl transferase-mediated dUTP nick end-labeling. ^aP<0.00003 versus solvent-treated cells. ^bP<0.0006 versus solvent/4-HNE-treated cells.
Reference is made to FIG. 6, which depicts the protective effect of 6-mer dS or 6-mer dE on 4-hydroxy-2-nonenal (4-HNE) induced apoptosis of ARPE-19 cells. 4-hydroxy-2-nonenal (4-HNE) is a product of lipid oxidation, and is also considered as one of the most formidable reactive aldehydes capable of forming adduct with various cellular targets, particularly proteins involve in redox signaling.

Experiment [2] has as its system C57BL/6 mice, dry eye induced in controlled environment chamber (CEC). Put plainly: Dry eye animal model, corneal fluorescein staining. As to conditions: mice 14 days in CEC, then 100 μM peptide eye drop three times a day for 4 days (Day 4); day 0 score 3±0. Format: in vivo, mouse. How it is done: Dry eyes were induced by placing mice in a controlled environment chamber (CEC) for 14 days in accordance with procedures previously described by Barabino et al (IVOS (2005) 46(8), 2766-2771). Mice placed in the CEC were exposed to a condition, in which relative humidity (RH) was maintained at <25%, temperature at 20-22° C., and airflow at about 15 L/min, for 12 hours per day. Control mice were kept in a normal environment (RH>50%, no air flow, temperature of 20-22° C.) for the same duration.
A common artificial tear formulation, 1% carboxymethylcelllulose (CMC) dissolved in balanced salt solution (BSS) was used as the peptide vehicle. Peptide (100 μM, about 0.7 μg peptide in 10 μl eye drop used for treating one eye) or 1% CMC vehicle was topically administered to eyes three times a day. To test whether the present synthetic peptide could exert any therapeutic action on dry eyes, mice were housed at CEC for 14 days without topical treatment, and then were treated with the present peptide for 4 days.
Animals were anesthetized by an intraperitoneal injection of a mixture of zoletil (6 mg/kg) and xylazine (3 mg/kg). Corneal epithelial injury was determined by staining with topical fluorescein (Fluor-I-Strip, Ayerst Laboratories, Philadelphia, PA). Corneal fluorescein staining was examined with a slit-lamp biomicroscope under cobalt blue light and photographed with a digital camera. Dye staining of the cornea was scored in a blinded manner as follows: score 0 for no punctuate staining; score 1 when less than one third of the cornea was stained; score 2 when two thirds or less was stained; and score 3 when more than two thirds was stained (Horwath-Winter J 2013).
Briefly, mice were housed at controlled environment chamber (CEC) for 14 days (set as Day 0) to induce corneal surface disruption. Corneal fluorescein staining was used to estimate the corneal surface injury and the animal with a staining score of 2 (after mice placed at CEC for 14 days) was subjected to peptide treatment. The 6-mer variant peptide formulation for the treatment of DED was described in Methods. […]

Experiment [3] has as its system survivin mRNA. Put plainly: Real-time qPCR of survivin mRNA in C2C12 cells. In kind it is cell-based, mouse. As to conditions: C2C12 cells in low serum media, 20 μM peptide, 6 h. How it is done:
Total RNA was extracted from cells using TRIzol (Invitrogen). Synthesis of cDNA was performed with 1 μg of total RNA at 50° C. for 50 min using oligo(dT) primers and reverse transcriptase (Superscript III; Invitrogen). Briefly, quantification of cDNA was performed in the LightCycler (Roche, Mannheim, Germany) using the DNA Master SYBR Green I kit (Roche) with the following cycling conditions: initial denaturation at 95° C. for 10 min, followed by 40 cycles at 95° C. for 10 s, 60° C. for 10 s, and 72° C. for 10 s and a 5-min terminal incubation at 72° C. The data were calculated with AACt. The expression was then normalized against the expression of glyceraldehyde-3-phosphate dehydrogenase (GAPDH). The PCR primers were mouse Survivin sense, 5′-[…]-3′ (SEQ ID NO: 27), anti-sense, 5′-[…]-3′ (SEQ ID NO: 28) (accession number: NM_001012273.1; PCR product: 136 bp); mouse GAPDH sense, 5′-[…]-3′ (SEQ ID NO: 29), anti-sense, 5′-[…]-3′ (SEQ ID NO: 30) (NM_001289726.1; 149 bp). For analysis rabbit inflammatory gene expression, The PCR primers were rabbit TNF-αsense, 5′-[…]-3′ (SEQ ID NO: 31), anti-sense, 5′-[…]-3′ (SEQ ID NO: 32) (accession number: NM 001082263.1); rabbit IL-1βsense, 5′-[…]-3′(SEQ ID NO: 33), anti-sense, 5′-[…]-3′ (SEQ ID NO: 34) (NM 001082201.1); rabbit GAPDH sense, 5′-[…]-3′ (SEQ ID NO: 35), anti-sense, 5′-[…]-3′ (SEQ ID NO: 36) (accession number:NM 001082253.1). The cycle threshold (Ct) values of the PCR product and a GAPDH (Glyceraldehyde 3-phosphate dehydrogenase) control mRNA were used to calculate relative quantities of mRNA.
Similar to the approach in Example 1.2.1, the expression level of survivin mRNA in C2C12 cells was used as an indicator for the function of the 6-mer variants in Tables 3 to 5. Briefly, C2C12 cells in low serum media were treated with 20 μM the 6-mer variants for 6 h. […] The results also confirmed that alanine substation at the glutamic acid (E) residues would severely impair the 6-mer activity.

Consider “NH2-(D-Ser)-Leu-Gly-Ala-Glu-Gln-COOH (SLGAEQ; HELM PEPTIDE1{[dS].L.G.A.E.Q}$$$$V2.0; SMILES CC(C)C[C@H](NC(=O)[C@H](N)CO)C(=O)NCC(=O)N[C@@H](C)C(=O)N[C@@H](CCC(=O)O)C(=O)N[C@@H](CCC(N)=O)C(=O)O) [6-mer dS]”, for which, in the experiment with survivin mRNA [1], the “level of survivin mRNA compared to solvent-treated cells” value is 2.6 fold. The “4-HNE induced apoptosis (TUNEL), in words” value in the experiment on ARPE-19 cells was “could suppress 4-HNE induced apoptosis”. In experiment [2], the “corneal fluorescein staining score” value amounted to 1.4±0.2 score. Further, the “survivin mRNA induction, in words” value in the experiment with survivin mRNA [3] was “increased the level of survivin mRNA”.
